This passage reports inhibition and IC50 results from US20130165483A1, “HETEROARYLS AND USES THEREOF” (MILLENNIUM PHARMACEUTICALS, INC., priority 2011, published 2013).

The structures appear in SMILES notation. Bounds are passed on as bounds.

The assay deals with T1, VPS34 (Homo sapiens, UniProt Q8NEB9).
T1 construct: GST (N); host or cells: SF9 insect cells (baculovirus)
As to the kind of experiment: Human VPS34 enzyme assay (Adapta TR-FRET). It counts as biochemical. Conditions: for inhibition at 1.11 µM: 1 h, at a 1.11 μM concentration, read-out: VPS34 Percent Inhibition; for IC50: VPS34 enzyme. The procedure: VPS34 (accession number GB:BC033004) was cloned into pDEST20-Thombin as N-terminal GST tagged fusion proteins using the Gateway system (Invitrogen, catalog#11804-013). The sequences were verified before recombinant protein expression using the Baculovirus Expression System with Gateway® Technology.
For expression VPS34 was infected at 1MOI in SF9 cells and harvested 72 hours post infection.
For purification, VPS34 is purified by Glutathione Sepharose 4 Fast Flow (GE Healthcare #17-5132-03) followed by HiTrap Q (GE Healthcare #17-1153-01).
Human VPS34 enzyme assay method
100mL compounds in DMSO are added to wells of a 384 well microtitre plate (Greiner 780076). At room temperature: 5ul VPS34 reaction buffer (Invitrogen Assay Buffer Q (diluted 1 in 5 with nanopure water) plus 2 mM DTT and 2 mM MnCl2) containing ATP (20 uM, Promega) and 200 uM PI—PS substrate (Invitrogen PV5122) is added followed immediately by 5ul VPS34 reaction buffer (as above) containing VPS34 (5 nM, Millennium Protein Sciences Group) and the mixture is incubated with shaking at room temperature for 1 hour. Then 5ul VPS34 stop-detect mix (as per Invitrogen Adapta Assay kit (PV5009) instructions (contains kinase quench buffer, TR-FRET buffer, Adapta Eu anti-ADP antibody and Alexa Fluor 647 ADP tracer)) is added to quench the reaction. The plates are then incubated for 30 minutes at room temperature with shaking and then read on a BMG PheraStar Plus reader.
For the assay methods described above, test compound percent inhibition, at various concentrations, is calculated relative to control (DMSO and EDTA) treated samples. Compound concentration versus percent inhibition curves are fitted to generate IC50 values. One skilled in the art will appreciate that the values generated either as percentage inhibition at a single concentration or IC50 values are subject to experimental variation.

T1 sequence (Q8NEB9 whole entry): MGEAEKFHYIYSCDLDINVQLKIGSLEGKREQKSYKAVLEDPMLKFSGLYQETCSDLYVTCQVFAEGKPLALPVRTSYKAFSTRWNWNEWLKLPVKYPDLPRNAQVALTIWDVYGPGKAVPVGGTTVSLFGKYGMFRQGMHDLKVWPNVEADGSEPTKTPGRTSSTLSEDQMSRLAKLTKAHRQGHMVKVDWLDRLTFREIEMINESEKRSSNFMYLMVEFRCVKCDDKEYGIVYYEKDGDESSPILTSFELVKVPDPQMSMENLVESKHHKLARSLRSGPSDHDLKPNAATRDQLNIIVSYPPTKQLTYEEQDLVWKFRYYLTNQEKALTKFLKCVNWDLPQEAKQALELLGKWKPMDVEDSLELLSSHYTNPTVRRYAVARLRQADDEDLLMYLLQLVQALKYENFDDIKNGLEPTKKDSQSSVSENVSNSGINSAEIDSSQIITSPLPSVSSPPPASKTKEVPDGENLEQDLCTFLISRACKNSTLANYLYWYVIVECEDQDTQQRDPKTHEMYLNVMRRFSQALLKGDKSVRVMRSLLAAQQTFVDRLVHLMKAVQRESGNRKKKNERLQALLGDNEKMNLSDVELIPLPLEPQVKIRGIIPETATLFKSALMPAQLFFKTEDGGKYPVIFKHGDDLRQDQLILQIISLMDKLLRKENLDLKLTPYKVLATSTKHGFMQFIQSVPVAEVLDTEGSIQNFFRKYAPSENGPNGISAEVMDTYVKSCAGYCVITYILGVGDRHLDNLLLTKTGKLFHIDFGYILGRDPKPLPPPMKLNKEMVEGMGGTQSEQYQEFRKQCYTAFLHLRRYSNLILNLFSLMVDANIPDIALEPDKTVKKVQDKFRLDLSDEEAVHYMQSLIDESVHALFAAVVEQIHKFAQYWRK

`CC(=O)Nc1cc(-c2cc(-c3ccccc3C)c(C(N)=O)[nH]2)ccn1` [I-102, 5-(2-acetamidopyridin-4-yl)-3-(2-methylphenyl)-1H-pyrrole-2-carboxamide]: the inhibition at 1.11 µM worked out at 96% and the concentration for half-maximal inhibition (IC50) lay within 100 to 1000 nM.

Regarding `CC(=O)Nc1cc(-c2cc(-c3ccccc3Cl)n(-c3nccs3)n2)ccn1` [I-3, N-[4-[5-(2-chlorophenyl)-1-(1,3-thiazol-2-yl)-1H-pyrazol-3-yl]pyridin-2-yl]acetamide], the inhibition at 1.11 µM is 6% and the half-maximal inhibitory concentration (IC50) was 1000 to 10000 nM.

In the case of `CC(=O)Nc1cc(-c2cc(-c3nnc[nH]3)n(CC3CC3)c2)c(C)cn1` [I-91, N-{4-[1-(cyclopropylmethyl)-5-(4H-1,2,4-triazol-3-yl)-1H-pyrrol-3-yl]-5-methylpyridin-2-yl}acetamide], the inhibition at 1.11 µM was over 99% and the IC50 is under 100 nM.

For the compound `CC(=O)Nc1cc(-c2cc(C(N)=O)c(-c3ccnc(NC(C)=O)c3)n2C)ccn1` [I-95, 2,5-bis(2-acetamidopyridin-4-yl)-1-methyl-1H-pyrrole-3-carboxamide], the inhibition at 1.11 µM was 18% and the half-maximal inhibitory concentration (IC50) fell in the range of 1000 to 10000 nM.

As to `CC(=O)Nc1cc(-c2cc(-c3nnc[nH]3)n(-c3ccccc3Cl)n2)ccn1` [I-21, N-{4-[1-(2-chlorophenyl)-5-(1H-1,2,4-triazol-3-yl)-1H-pyrazol-3-yl]pyridin-2-yl}acetamide], the inhibition at 1.11 µM worked out at 96% and the half-inhibitory concentration (IC50) was 100 to 1000 nM.

On to `CC(=O)Nc1cc(-c2cc(-c3nnc[nH]3)cn2CC2CC2)ccn1` [I-87, N-{4-[1-(cyclopropylmethyl)-4-(4H-1,2,4-triazol-3-yl)-1H-pyrrol-2-yl]pyridin-2-yl}acetamide], for which the inhibition at 1.11 µM was 93% and the half-inhibitory concentration (IC50) was 100 to 1000 nM.

`CC(=O)Nc1cc(-c2cc(C(N)=O)n(CC3CC3)c2)c(C)cn1` [I-92, 4-(2-acetamido-5-methylpyridin-4-yl)-1-(cyclopropylmethyl)-1H-pyrrole-2-carboxamide]: the inhibition at 1.11 µM is 68% and the concentration for half-maximal inhibition (IC50) is 100 to 1000 nM.

As to `CC(=O)Nc1cc(-c2cc(-c3ccccc3C)c(-c3nnc[nH]3)[nH]2)ccn1` [I-101, N-{4-[4-(2-methylphenyl)-5-(4H-1,2,4-triazol-3-yl)-1H-pyrrol-2-yl]pyridin-2-yl}acetamide], the inhibition at 1.11 µM amounted to 60% and the half-inhibitory concentration (IC50) was in the range of 100 to 1000 nM.

In the case of `CCn1cc(C(N)=O)cc1-c1ccnc(NC(C)=O)c1` [I-100, 5-(2-acetamidopyridin-4-yl)-1-ethyl-1H-pyrrole-3-carboxamide], the inhibition at 1.11 µM worked out at 54% and the half-maximal inhibitory concentration (IC50) lay within 100 to 1000 nM.

As to `CC(=O)Nc1cc(-c2cc(C(N)=O)n(-c3ccccc3Cl)n2)ccn1` [I-14, 3-(2-acetamidopyridin-4-y1)-1-(2-chlorophenyl)-1H-pyrazole-5-carboxamide], the inhibition at 1.11 µM is 45% and the IC50 lay in the range of 1000 to 10000 nM.

Regarding `CC(=O)Nc1cc(-c2cc(C(N)=O)n(-c3ncccc3Cl)c2)c(C)cn1` [I-90, 4-(2-acetamido-5-methylpyridin-4-yl)-1-(3-chloropyridin-2-yl)-1H-pyrrole-2-carboxamide], the inhibition at 1.11 µM turned out to be 39% and the 50% inhibitory concentration (IC50) fell in the range of 1000 to 10000 nM.

In the case of `CC(=O)Nc1cc(-c2cc(C(N)=O)n(-c3ccc(N)cc3Cl)c2)c(C)cn1` [I-89, 4-(2-acetamido-5-methylpyridin-4-yl)-1-(4-amino-2-chlorophenyl)-1H-pyrrole-2-carboxamide], the inhibition at 1.11 µM is over 99% and the half-inhibitory concentration (IC50) is under 100 nM.

`CC(=O)Nc1cc(-c2cc(-c3ccccc3C)c(-c3nc[nH]n3)n2C)ccn1` [I-103, N-{4-[1-methyl-4-(2-methylphenyl)-5-(1H-1,2,4-triazol-3-yl)-1H-pyrrol-2-yl]pyridin-2-yl}acetamide]: the inhibition at 1.11 µM was found to be 39% and the 50% inhibitory concentration (IC50) is 1000 to 10000 nM.

`Cc1cnc(NC(=O)C2CC2)cc1-c1cc(C(N)=O)n(-c2ccccc2Cl)c1` [I-99, 1-(2-chlorophenyl)-4-{2-[(cyclopropylcarbonyl)amino]-5-methylpyridin-4-yl}-1H-pyrrole-2-carboxamide]: the inhibition at 1.11 µM turned out to be 93% and the concentration for half-maximal inhibition (IC50) lay in the range of 100 to 1000 nM.

In the case of `CC(=O)Nc1cc(-c2cc(-c3ccccc3C)c(C(N)=O)n2C)ccn1` [I-104, 5-(2-acetamidopyridin-4-yl)-1-methyl-3-(2-methylphenyl)-1H-pyrrole-2-carboxamide], the inhibition at 1.11 µM stood at 7% and the IC50 is 1000 to 10000 nM.

In the case of `C=CCn1cc(-c2cc(NC(=O)C3CC3)ncc2C)cc1-c1nc[nH]n1` [I-88, N-{4-[1-allyl-5-(1H-1,2,4-triazol-3-yl)-1H-pyrrol-3-yl]-5-methylpyridin-2-yl}cyclopropanecarboxamide], the inhibition at 1.11 µM amounted to 69% and the IC50 is under 100 nM.

For `CC(=O)Nc1cc(-c2cc(-c3nnc[nH]3)n(-c3ccc(Cl)cc3Cl)n2)ccn1` [I-15, N-{4-[1-(2,4-dichlorophenyl)-5-(4H-1,2,4-triazol-3-yl)-1H-pyrazol-3-yl]pyridin-2-yl}acetamide], the inhibition at 1.11 µM is over 99% and the IC50 was under 100 nM.

On to `CCCn1cc(-c2cc(NC(=O)C3CC3)ncc2C)cc1-c1nc[nH]n1` [I-94, N-{5-methyl-4-[1-propyl-5-(4H-1,2,4-triazol-3-yl)-1H-pyrrol-3-yl]pyridin-2-yl}cyclopropanecarboxamide], for which the inhibition at 1.11 µM is over 99% and the IC50 was in the range of 100 to 1000 nM.

As to `CC(=O)Nc1cc(-c2cc(C(N)=O)n(-c3ccccc3Cl)c2)c(C)cn1` [I-97, 4-(2-acetamido-5-methylpyridin-4-yl)-1-(2-chlorophenyl)-1H-pyrrole-2-carboxamide], the inhibition at 1.11 µM was 96% and the IC50 was 100 to 1000 nM.

Regarding `CC(=O)Nc1cc(-c2cc(-c3nc[nH]n3)n(-c3ccccc3Cl)c2)c(C)cn1` [I-93, N-{4-[1-(2-chlorophenyl)-5-(1H-1,2,4-triazol-3-yl)-1H-pyrrol-3-yl]-5-methylpyridin-2-yl}acetamide], the inhibition at 1.11 µM is over 99% and the IC50 is under 100 nM.

As to `CCn1cc(-c2nnc[nH]2)cc1-c1ccnc(NC(C)=O)c1` [I-86, N-{4-[1-ethyl-4-(4H-1,2,4-triazol-3-yl)-1H-pyrrol-2-yl]pyridin-2-yl}acetamide], the inhibition at 1.11 µM was over 99% and the IC50 fell in the range of 100 to 1000 nM.

Turning to `Cc1cnc(NC(=O)C2CC2)cc1-c1cc(-c2nc[nH]n2)n(-c2ccccc2Cl)c1` [I-98, N-{4-[1-(2-chlorophenyl)-5-(1H-1,2,4-triazol-3-yl)-1H-pyrrol-3-yl]-5-methylpyridin-2-yl}cyclopropanecarboxamide], the inhibition at 1.11 µM was over 99% and the IC50 was under 100 nM.

In the case of `CC(=O)Nc1cc(-c2cc(-c3nc[nH]n3)n(-c3ncccc3Cl)c2)c(C)cn1` [I-96], the inhibition at 1.11 µM came out at 96% and the IC50 was 100 to 1000 nM.
